Key:
Conditions in all cases: incubation time: 72 h
[1] = tested on: DU-4475; experiment: normalised viability (% of control), CellTiter-Blue; higher = more viable cells (about 100 = DMSO control)
Experimental: (§1)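 DSRT, CellTiter-Blue viability, 72 h incubation. Signal is normalised to DMSO and benzethonium chloride controls. Value is the normalised response at dose 3.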

[2] = tested on: MFM-223; experiment: as above
Experimental: as §1

[3] = tested on: CAL-148; experiment: as above
Experimental: as §1

[4] = tested on: Hs578T; experiment: as above
Experimental: as §1

[5] = tested on: CAL-51; experiment: as above
Experimental: as §1

[6] = tested on: CAL-120; experiment: as above
Experimental: as §1

[7] = tested on: MDA-MB-436; experiment: as above
Experimental: as §1

[8] = tested on: HCC1937; experiment: as above
Experimental: as §1

[9] = tested on: CAL-85-1; experiment: as above
Experimental: as §1

[10] = tested on: MDA-MB-453; experiment: as above
Experimental: as §1

[11] = tested on: BT-549; experiment: as above
Experimental: as §1

[12] = tested on: SK-BR-3; experiment: as above
Experimental: as §1

[13] = tested on: MDA-MB-231; experiment: as above
Experimental: as §1

[14] = tested on: HCC1599; experiment: as above
Experimental: as §1

[15] = tested on: MDA-MB-468; experiment: as above
Experimental: as §1

[16] = tested on: BT-474; experiment: as above
Experimental: as §1

[17] = tested on: HDQ-P1; experiment: as above
Experimental: as §1

[18] = tested on: HCC1143; experiment: as above
Experimental: as §1

[19] = tested on: MFM-223; experiment: drug sensitivity score (DSS), CellTiter-Blue viability (DSS (AUC-based score)); higher = stronger viability inhibition; extreme values may be limits of the assay
Outline: (§2)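 A 72 h incubation followed seeding of breast cancer cell lines (20 µl suspension) into 384-well plates holding compound in a 5- or 9-concentration series. CellTiter-Blue, 2.5 µl per well, was incubated 2 h at 37 °C, and fluorescence was measured at 560/590 nm. Normalisation on every plate used 0.1 % DMSO and a positive kill control. From the fitted dose-response curve, the area under the curve was taken as the drug sensitivity score.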

[20] = tested on: BT-549; experiment: as above
Outline: as §2

[21] = tested on: DU-4475; experiment: normalised viability (% of control), CellTiter-Blue; higher = more viable cells (about 100 = DMSO control); remark: listed apart in the source
Outline: (§3)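 384-well plates were pre-loaded with compound in 5 µl medium before 20 µl of breast cancer cell suspension was seeded. Following 72 h incubation, 2.5 µl CellTiter-Blue reagent was added for 2 h at 37 °C. Fluorescence was read at 560/590 nm and plates were normalised to vehicle (100) and a positive kill control (0), checked by Z'-factor. Normalised viability is reported at a single listed concentration of the series.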

[22] = tested on: MFM-223; experiment: as above; remark: listed apart in the source
Outline: as §3

[23] = tested on: Hs578T; experiment: as above; remark: listed apart in the source
Outline: as §3

[24] = tested on: CAL-51; experiment: as above; remark: listed apart in the source
Outline: as §3

[25] = tested on: SK-BR-3; experiment: as above; remark: listed apart in the source
Outline: as §3

[26] = tested on: MDA-MB-231; experiment: as above; remark: listed apart in the source
Outline: as §3

[27] = tested on: HCC1599; experiment: as above; remark: listed apart in the source
Outline: as §3

C[C@]12C=CC(=O)C=C1CC[C@@H]1[C@@H]2C(=O)C[C@@]2(C)[C@H]1CC[C@]2(O)C(=O)CO [Prednisone]
Conditions | normalised viability [%]
[1], 10 nM | 97.9
[2], 100 nM | 92.3
[3], 10 nM | 98.2
[4], 100 nM | 77.9
[5], 10 nM | 102
[6], 100 nM | 78.2
[7], 100 nM | 108
[8], 100 nM | 100
[9], 10 nM | 109
[10], 10 nM | 112
[11], 100 nM | 99.2
[12], 100 nM | 77
[13], 100 nM | 100
[14], 100 nM | 98.5
[15], 100 nM | 99.2
[16], 100 nM | 117
[17], 10 nM | 104
[18], 100 nM | 101
[21], 3 nM | 90.2
[21], 30 nM | 94.9
[21], 100 nM | 88.4
[22], 10 nM | 91.7
[22], 1000 nM | 89.7
[22], 10000 nM | 94.8
[23], 10 nM | 121
[23], 1000 nM | 108
[23], 10000 nM | 105
[24], 3 nM | 104
[24], 30 nM | 98.3
[24], 100 nM | 103
[25], 10 nM | 101
[25], 1000 nM | 111
[25], 10000 nM | 113
[26], 10 nM | 97
[26], 1000 nM | 101
[26], 10000 nM | 108
[27], 10 nM | 102
[27], 1000 nM | 103
[27], 10000 nM | 94

Conditions | drug sensitivity score
[19] | 0
[20] | 0

O=C(c1cc(Cc2n[nH]c(=O)c3ccccc23)ccc1F)N1CCN(C(=O)C2CC2)CC1 [Olaparib]
Conditions | normalised viability [%]
[1], 10 nM | 97.5
[2], 100 nM | 103
[3], 10 nM | 83.3
[4], 100 nM | 80.9
[5], 10 nM | 101
[6], 100 nM | 76.2
[7], 100 nM | 107
[8], 100 nM | 77.9
[9], 10 nM | 88.1
[10], 10 nM | 97.8
[11], 100 nM | 102
[12], 100 nM | 81.2
[13], 100 nM | 76.5
[14], 100 nM | 114
[15], 100 nM | 99.8
[16], 100 nM | 105
[17], 10 nM | 99.4
[18], 100 nM | 88.2
[21], 3 nM | 95.6
[21], 30 nM | 89.2
[21], 100 nM | 91.6
[22], 10 nM | 98.3
[22], 1000 nM | 98.8
[22], 10000 nM | 114
[23], 10 nM | 110
[23], 1000 nM | 109
[23], 10000 nM | 75.7
[24], 3 nM | 107
[24], 30 nM | 98.5
[24], 100 nM | 97.7
[25], 10 nM | 103
[25], 1000 nM | 93.5
[25], 10000 nM | 82.1
[26], 10 nM | 89.7
[26], 1000 nM | 88
[26], 10000 nM | 72.2
[27], 10 nM | 93.8
[27], 1000 nM | 114
[27], 10000 nM | 94.2

Conditions | drug sensitivity score
[19] | 0
[20] | 0

O=C(O)CC[C@H]1CC[C@@](c2cc(F)ccc2F)(S(=O)(=O)c2ccc(Cl)cc2)CC1 [MK-0752]
Conditions | normalised viability [%]
[1], 1 nM | 105
[2], 10 nM | 97.1
[3], 1 nM | 107
[4], 10 nM | 88.6
[5], 1 nM | 96.3
[6], 10 nM | 95.1
[7], 10 nM | 103
[8], 10 nM | 88.5
[9], 1 nM | 96
[10], 1 nM | 111
[11], 10 nM | 104
[12], 10 nM | 93.3
[13], 10 nM | 98
[14], 10 nM | 106
[15], 10 nM | 97.6
[16], 10 nM | 114
[17], 1 nM | 96.2
[18], 10 nM | 98
[21], 0.3 nM | 115
[21], 3 nM | 91.5
[21], 10 nM | 101
[22], 1 nM | 103
[22], 100 nM | 94.3
[22], 1000 nM | 97.9
[23], 1 nM | 137
[23], 100 nM | 103
[23], 1000 nM | 113
[24], 0.3 nM | 106
[24], 3 nM | 101
[24], 10 nM | 98.8
[25], 1 nM | 106
[25], 100 nM | 105
[25], 1000 nM | 111
[26], 1 nM | 97.7
[26], 100 nM | 92.5
[26], 1000 nM | 89.7
[27], 1 nM | 98.2
[27], 100 nM | 81.8
[27], 1000 nM | 74.7

Conditions | drug sensitivity score
[19] | 0
[20] | 0
